Results on 14 molecules are retold here after PubChem BioAssay (NCI).

Structures are written as SMILES.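 Step 1: Grow cells in 96-well plates. Step 2: Expose to compound for 48 hours at 5 concentrations. Step 3: Interpolate endpoints linearly; if unreached, use highest concentration. TGI: total growth inhibition.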 Where a SMILES comes first, the peptide text is derived from it. [ ]: non-standard residue; d: D form. The star is where a group is joined. Phe(4-NO2) = N[CH](Cc1ccc([N+](=O)[O-])cc1)C(=O)O; Boc = CC(C)(C)OC(=O)* Bounds are passed on as bounds.

Holding throughout (test): NCI-60 cell line screen, 48 h
In assay [1] the test system is A549 NSCLC.
Assay [2] concerns ACHN renal.
The subject of assay [3] is CAKI-1 renal.
The subject of assay [4] is CCRF-CEM leukemia.
The subject of assay [5] is HCC-2998 colon.
Assay [6] has as its system HL-60(TB) leukemia.
The subject of assay [7] is HS 578T breast.
For assay [8], the system named is K-562 leukemia.
For assay [9], the system named is LOX IMVI melanoma.
Assay [10] concerns MALME-3M melanoma.
Assay [11] deals with MDA-MB-231 breast.
Assay [12] concerns MDA-N.
The test system of assay [13] is NCI-H460 lung.
For assay [14], the system named is NCI-H522 lung.
In assay [15] the test system is OVCAR-8 ovarian.
The test system of assay [16] is PC-3 prostate.
In assay [17] the test system is SNB-19 CNS.
The subject of assay [18] is SW-620 colon.
The test system of assay [19] is UACC-257 melanoma.
Assay [20] concerns SK-MEL-2 melanoma.

As to `CCOC(=O)CC(=O)CSc1c(-c2ccccc2)c(=O)n(-c2ccccc2)c(=S)n1-c1ccccc1`, the TGI in assay [1], in assay [2], in assay [3], in [4], in [5] and in [6] was > 100 µM in each case. The TGI in assay [7], in [8], in [9], in assay [10], in [11] and in assay [12] was > 100 µM each time. Further, the TGI in assay [13], in assay [14], in [15], in assay [16], in [17] and in [18] was > 100 µM each time. Also, the TGI in assay [19] was > 100 µM.
On to `OCCCCCCCCCCCOc1ccc(C2OCC3(CC=CCC3)CO2)cc1` (stereo not given), for which the TGI in assay [1] was determined as 45.7 µM; in assay [2], 33.3 µM; in [3], 31.1 µM; in assay [4], 55.6 µM; in assay [5] it was 38 µM; in assay [6], 88.7 µM. In addition, the TGI in assay [7] amounted to 40 µM; in assay [9], 25.2 µM; in [10], 43.4 µM; in [11], 31.4 µM; in assay [12], 32 µM; in assay [13], 36.5 µM. For the same molecule, the TGI in assay [14] was 23.4 µM; in [15] it was 43.1 µM; in assay [16] it was 22.8 µM; in [20], > 100 µM; in [17], 43.5 µM; in [18] it was 39.1 µM. In assay [19], this molecule displayed a TGI of 38.2 µM.
`COC(=O)/C=C(\C)CC/C=C(\C)CCC(O)C(C)(C)O` (stereo not given): the TGI in assay [1] is > 100 µM; in [2], 75 µM; in [3] it was 48.5 µM; in [4], 41.8 µM; in assay [5], 47.2 µM; in [6] it was 42.2 µM. Besides, the TGI is 98.5 µM in [7]; 76.7 µM in assay [8]; 31.5 µM in assay [9]; 41.5 µM in assay [10]; > 100 µM in [11]; 57.8 µM in [12]. Besides, the TGI in assay [13] is 37.8 µM; in assay [15] it was 67 µM; in assay [16] it was 30.8 µM; in assay [20], 36.3 µM; in assay [17] it was > 100 µM; in [18] it was 53.5 µM. Moreover, the TGI in assay [19] is > 100 µM.
In the case of `Nc1c(Br)cc(-c2nc3ccccc3s2)cc1Br`, the TGI in [1], in assay [2], in assay [3], in [4], in assay [5] and in [6] was > 100 µM each time. For the same molecule, the TGI in assay [7], in assay [8], in [10], in [11], in assay [12] and in assay [13] was > 100 µM in each case. For the same molecule, the TGI in assay [14], in assay [15], in [16], in [20], in [17] and in [18] was > 100 µM throughout. Also, the TGI in [19] was > 100 µM.
As for `COC(=O)N/N=C(\c1ccccc1)c1ccc(OC)cc1`, the TGI in assay [1], in assay [3], in assay [4], in [5], in assay [6] and in [7] was > 100 µM in each case. The TGI in assay [8], in assay [9], in assay [10], in assay [11], in assay [12] and in assay [13] was > 100 µM throughout. For the same molecule, the TGI in [14], in assay [15], in assay [16], in assay [20], in assay [17] and in [18] was > 100 µM each time. Besides, the TGI in assay [19] is > 100 µM.
Regarding `COc1ccc2c(c1)CCc1c-2n(CCN2CCOCC2)c2ccc(OC)cc12`, the TGI was > 100 µM in [1]; > 100 µM in [2]; > 100 µM in assay [3]; 53.1 µM in assay [4]; 33.2 µM in assay [5]; > 100 µM in assay [7]. Moreover, the TGI in assay [8] was 54 µM; in [10], > 100 µM; in assay [11], > 100 µM; in assay [12], > 100 µM; in assay [13] it was > 100 µM; in [14], > 100 µM. Further, the TGI in [15], in [16], in [20], in assay [18] and in assay [19] was > 100 µM throughout.
For the molecule `CSc1nc(Br)nc2ncn(C3CC(Oc4ccc(C)cc4)C(COc4ccc(C)cc4)O3)c12` (stereo not given), the TGI in assay [1], in assay [2], in assay [3], in assay [4], in assay [5] and in [6] was > 100 µM throughout. Also, the TGI is 63.5 µM in assay [7]; > 100 µM in assay [9]; > 100 µM in assay [10]; > 100 µM in assay [11]; > 100 µM in assay [12]; > 100 µM in assay [13]. The TGI in assay [14], in assay [15], in [16], in assay [20], in [17] and in assay [18] was > 100 µM in each case. The TGI in assay [19] is > 100 µM.
For the molecule `COc1ccc(C(=C2C(=O)N(c3ccccc3)C(=O)C2=C(C)C)c2ccc(OC)cc2)cc1`, the TGI is > 62.9 µM in assay [1]; > 31.7 µM in assay [2]; 42 µM in assay [3]; > 52 µM in assay [5]; 6.32 µM in assay [6]; > 39 µM in assay [7]. Further, the TGI in assay [8] was > 100 µM; in assay [9], > 31.3 µM; in [10], > 100 µM; in [11], > 35.4 µM; in assay [12] it was 4.11 µM; in [13], > 100 µM. Moreover, the TGI in [14] was 15.7 µM; in [15], > 32.1 µM; in assay [16] it was > 40.1 µM; in [20] it was > 42.3 µM; in assay [17], > 56.2 µM; in assay [18] it was > 100 µM. In assay [19], the TGI is > 47.5 µM.
As for `C#CC(O)/C=C/C(O)CCCC(O)CC#CC(O)C#CC(O)CCCC(O)/C=C/CCCCCC(=O)CCCCCCCCCCCCCC(O)C(O)C#CC(=O)O` (stereo not given), the TGI in assay [1] is > 50 µM; in assay [2], > 50 µM; in assay [3], > 50 µM; in assay [4], 34.2 µM; in assay [5], > 50 µM; in [6] it was > 50 µM. For the same molecule, the TGI in assay [7] was 33.3 µM; in [8] it was > 50 µM; in assay [9], 24.5 µM; in assay [10] it was > 50 µM; in assay [11], 24.6 µM; in [12] it was > 50 µM. Besides, the TGI was > 50 µM in assay [13]; 18.3 µM in assay [14]; > 50 µM in [15]; > 50 µM in assay [16]; 47.3 µM in assay [20]; > 50 µM in assay [17]. Moreover, in [19], the TGI is > 50 µM.
On to `COc1cc2c(cc1OC)C(=O)/C(=C/c1cc(Cl)cc(Cl)c1)C2`, for which the TGI in [1], in assay [2], in assay [3], in assay [4], in [5] and in assay [6] was > 100 µM in each case. In addition, the TGI in assay [7] was > 100 µM; in assay [8], > 44.4 µM; in assay [9], > 100 µM; in [10], > 59.7 µM; in [11], > 100 µM; in assay [12] it was 4.86 µM. The TGI in [13] was > 100 µM; in [15], > 100 µM; in assay [16], > 100 µM; in [20] it was > 95 µM; in assay [17] it was > 100 µM; in assay [18], > 100 µM. The TGI in assay [19] was > 100 µM.
Take `O=c1oc2c/c(=C\c3ccccn3)c(=O)c3cccc1c3-2`: the TGI in assay [2], in assay [3], in assay [4], in [5], in [6] and in assay [7] was > 100 µM throughout. Besides, the TGI in assay [8], in assay [9], in [10], in assay [11], in [12] and in [13] was > 100 µM in each case. The TGI in assay [14] is > 100 µM; in assay [15] it was 54.4 µM; in assay [16], > 100 µM; in assay [17], > 100 µM; in [18] it was > 100 µM; in assay [19], > 100 µM.
With `O=C(NCCCNCCCCNCCCNC(=O)c1cc(-c2ccccc2)nc2ccccc12)c1cc(-c2ccccc2)nc2ccccc12`, the TGI in [1] worked out at 4.88 µM; in [2], 42.3 µM; in [3] it was 36.3 µM; in [4], 3.63 µM; in assay [5], 4.61 µM; in assay [6], 3.8 µM. Further, the TGI is 4.32 µM in assay [7]; 3.83 µM in assay [8]; 3.12 µM in [9]; 4.01 µM in [10]; > 100 µM in [11]; 3.17 µM in assay [12]. Also, the TGI in assay [13] came out at 19.7 µM; in [14], 5.64 µM; in assay [16], 4.33 µM; in assay [18], 13.1 µM; in [19] it was 13.3 µM.
For the molecule `Cn1ccoc1=Nc1ccc(Cl)c(Cl)c1`, the TGI in assay [1], in assay [2], in [3], in [4], in assay [5] and in assay [7] was > 10 µM in each case. Besides, the TGI in [8], in [9], in assay [10], in assay [11], in assay [12] and in assay [13] was > 10 µM in each case. For the same molecule, the TGI in [14], in [15], in assay [16], in assay [17], in [18] and in assay [19] was > 10 µM throughout.
Consider `COC(=O)CCC(NC(=O)OC(C)(C)C)C(=O)NC(Cc1ccc([N+](=O)[O-])cc1)C(=O)NC(CCC(=O)OC)C(=O)OC` (stereo not given) (Boc-Glu(OMe)-[Phe(4-NO2)]-Glu(OMe)-OMe; configuration not given here), for which the TGI in assay [1] is > 100 µM; in [2], > 100 µM; in [3], > 100 µM; in [4], 36.8 µM; in assay [5] it was > 100 µM; in [7], > 100 µM. Also, the TGI in [8] was > 100 µM; in assay [9], 80.2 µM; in assay [10], > 100 µM; in [11], > 100 µM; in assay [12] it was > 100 µM; in assay [13], > 100 µM. For the same molecule, the TGI in assay [14], in [15], in [16], in assay [20], in [17] and in assay [18] was > 100 µM each time. Further, in [19], the TGI was found to be 25.3 µM.
